# According to ChEMBL document CHEMBL1137164, “Antioxidative activities of novel diphenylalkyl piperazine derivatives with high affinities for the dopamine transporter” (Bioorg Med Chem Lett, 2004):
# Organism: Canis familiaris
# Experiment: inhibitory concentration against auto-oxidative lipid peroxidation in canine brain homogenate
row,IC50 [µM],SMILES
1,1.6,COc1ccc(NCC(O)CN2CCN(CCCC(c3ccc(F)cc3)c3ccc(F)cc3)CC2)cc1 (stereo unspecified)
2,1.5,Cc1c(C)c2c(c(C)c1O)CC[C@@](C)(CCC[C@H](C)CCC[C@H](C)CCCC(C)C)O2 [ALPHA-TOCOPHEROL]
3,2.8,CC(C)(C)c1cc(NCC(O)CN2CCN(CCCC(c3ccc(F)cc3)c3ccc(F)cc3)CC2)cc(C(C)(C)C)c1O (stereo unspecified)
4,8.3,OC(CNc1ccccc1)CN1CCN(CCCCC(c2ccc(F)cc2)c2ccc(F)cc2)CC1 (stereo unspecified)
5,6.9,OC(CNc1ccccc1)CN1CCN(C(c2ccc(F)cc2)c2ccc(F)cc2)CC1 (stereo unspecified)
6,0.32,Oc1ccc(NCC(O)CN2CCN(CCCC(c3ccc(F)cc3)c3ccc(F)cc3)CC2)cc1 (stereo unspecified)
7,6.5,OC(CNc1ccccc1)CN1CCN(CCCC(c2ccc(F)cc2)c2ccc(F)cc2)CC1 (stereo unspecified)
8,182,O=[N+]([O-])c1ccc(NCC(O)CN2CCN(CCCC(c3ccc(F)cc3)c3ccc(F)cc3)CC2)cc1 (stereo unspecified)

# The remaining lines, values behind:
row,SMILES,IC50 [µM]
1,Cc1ccc(NCC(O)CN2CCN(CCCC(c3ccc(F)cc3)c3ccc(F)cc3)CC2)cc1 (stereo unspecified),6.1
2,OC(CNc1ccccc1)CN1CCN(CCC(c2ccc(F)cc2)c2ccc(F)cc2)CC1 (stereo unspecified),11
3,Nc1ccc(NCC(O)CN2CCN(CCCC(c3ccc(F)cc3)c3ccc(F)cc3)CC2)cc1 (stereo unspecified),2.7
4,OC(CNc1ccc(Cl)cc1)CN1CCN(CCCC(c2ccc(F)cc2)c2ccc(F)cc2)CC1 (stereo unspecified),8.5
5,CN(C)c1ccc(NCC(O)CN2CCN(CCCC(c3ccc(F)cc3)c3ccc(F)cc3)CC2)cc1 (stereo unspecified),2.2
6,COc1cc(NCC(O)CN2CCN(CCCC(c3ccc(F)cc3)c3ccc(F)cc3)CC2)cc(OC)c1OC (stereo unspecified),1.4
7,OC(CNc1ccc(Cl)c(Cl)c1)CN1CCN(CCCC(c2ccc(F)cc2)c2ccc(F)cc2)CC1 (stereo unspecified),23
8,OC(CNc1ccccc1)CN1CCN(CC(c2ccc(F)cc2)c2ccc(F)cc2)CC1 (stereo unspecified),11
